The source of these data is patent US4898729A, “Treatment of hypertension, compounds and compositions for antihypertension and diuresis” (priority 1983, dated 1990).

Read-outs that look alike come from different tables or passages of the source.

For data set [1] the following is noted: cited from earlier work; for Approx. Natriuretic Activity: comparison with chlorothiazide having a value of 1; for Potency as diuretic and natriuretic agent relative to chlorothiazide: chlorothiazide being one.
For data set [2] the following is noted: cited from earlier work; for Range diuretic dose: Example 1 table.
For the next data set, the system named is plasma proteins. Particulars: cited from earlier work.
The conditions of data set [3]: in vivo; cited from earlier work.
Another data set has as its system carbonic anhydrase. The settings on record: cited from earlier work.
Data set [4] can be described thus: Clinical antihypertensive action dissociated from diuresis. Type of data set: in vivo, humans. How it is done:
Such dosage was preferably administered at hourly intervals over a period of from 4 to 8 hours to hypertensive patients.

Take `NS(=O)(=O)c1cc2c(cc1Cl)NCNS2(=O)=O` [Hydrochlorothiazide]: in data set [1], the “Approx. Natriuretic Activity” value is 10. In addition, in data set [2], the Range diuretic dose is 25 to 100 mg and the “Daily Diuretic Dose (average minimum diuretic dose)” value (“Daily Diuretic Dose” for short) was 200 mg.

Take `NS(=O)(=O)c1cc2c(cc1Cl)NC(C1CC3C=CC1C3)NS2(=O)=O` (centres unmarked) [Cyclothiazide]: in data set [1], the “Approx. Natriuretic Activity” value is listed as 500. Also, in data set [2], the Range diuretic dose is 1 to 6 mg and the “Daily Diuretic Dose” value is listed as 2 mg. The “Daily Diuretic Dose” value in data set [2] (listed as cyclothiazide) was “about 2 mg”. Besides, the “Binding to plasma proteins” value with plasma proteins is “proportionately high binding to plasma proteins”.

`NS(=O)(=O)c1cc2c(cc1Cl)N=C(CSCc1ccccc1)NS2(=O)=O` [Benzthiazide]: the “Approx. Natriuretic Activity” value in data set [1] was 10. Further, in data set [2], the Range diuretic dose is 25 to 50 mg and the “Daily Diuretic Dose” value is given as 200 mg. For the same compound, the “Clinical alkalinization of urine” value in data set [3] is “does not cause an appreciable clinical alkalinization of urine”. In the data set on carbonic anhydrase, the “Carbonic anhydrase inhibition, in words” value is reported as “relatively potent carbonic anhydrase inhibitor”.

For the compound `CN1C(CCl)Nc2cc(Cl)c(S(N)(=O)=O)cc2S1(=O)=O` (centres unmarked) [Methyclothiazide], in data set [1], the “Approx. Natriuretic Activity” value is 100. In data set [2], the Range diuretic dose was 5 to 10 mg and the “Daily Diuretic Dose” value was 10 mg. For the same compound, the “Binding to plasma proteins” value in the data set with plasma proteins is “proportionately high binding to plasma proteins”.

As for `NS(=O)(=O)c1cc2c(cc1Cl)NC(C(Cl)Cl)NS2(=O)=O` (centres unmarked) [Trichlormethiazide], the “Approx. Natriuretic Activity” value in data set [1] is reported as 200. In data set [2], the Range diuretic dose is 4 to 8 mg and the “Daily Diuretic Dose” value is recorded as 8 mg. Further, in the data set with plasma proteins, the “Binding to plasma proteins” value is recorded as “proportionately high binding to plasma proteins”.

On to `NS(=O)(=O)c1cc2c(cc1C(F)(F)F)N=CNS2(=O)=O` [Flumethiazide], for which the “Approx. Natriuretic Activity” value in data set [1] is 1. In data set [2], the Range diuretic dose was 50 to 1000 mg and the “Daily Diuretic Dose” value was 200 mg.

On to `NS(=O)(=O)c1cc2c(cc1Cl)NC(CC1CCCC1)NS2(=O)=O` (centres unmarked) [Cyclopenthiazide], for which, in data set [1], the “Potency as diuretic and natriuretic agent relative to chlorothiazide” value is recorded as “thousand times more potent”; the “Approx. Natriuretic Activity” value is listed as 1000. For the same compound, in data set [1] (listed as cyclopenthiazide), the “Potency as diuretic and natriuretic agent relative to chlorothiazide” value was “a thousand”. Besides, in data set [2], the Range diuretic dose was 1 to 6 mg and the “Daily Diuretic Dose” value is 2 mg. Further, in data set [2] (listed as cyclopenthiazide), the “Daily Diuretic Dose” value is given as “about 2 mg”. For the same compound, the “Binding to plasma proteins” value with plasma proteins was “proportionately high binding to plasma proteins”.

For `CN1C(CSCC(F)(F)F)Nc2cc(Cl)c(S(N)(=O)=O)cc2S1(=O)=O` (centres unmarked) [Polythiazide], in the data set on plasma proteins, the “Binding to plasma proteins” value is given as “proportionately high binding to plasma proteins”.

In the case of amiloride-hydrochlorothiazide salt, the “Diuretic response at the antihypertensive daily dose” value in data set [4] (at the daily dose of b165) is listed as “without diuresis”. In addition, the “Daily dose to achieve an antihypertensive effect” value in data set [4] (dose of active ingredients per day) was “about 50 mg”.

With `NS(=O)(=O)c1cc2c(cc1C(F)(F)F)NC(Cc1ccccc1)NS2(=O)=O` (centres unmarked) [Bendroflumethiazide], the “Approx. Natriuretic Activity” value in data set [1] is 100. In data set [2], the Range diuretic dose is 2 to 5 mg and the “Daily Diuretic Dose” value is on record as 20 mg. Moreover, the “Binding to plasma proteins” value with plasma proteins is listed as “proportionately high binding to plasma proteins”.
